Results: patent publication US8664257B2, “Oxygen-substituted 3-heteroaroylamino-propionic acid derivatives and their use as pharmaceuticals” (Sanofi, priority 2010, dated 2014)

biological target: T1, Recombinant human cathepsin A (Homo sapiens, UniProt P10619); experiment: Cathepsin A inhibitory activity; format: biochemical; details: read-out: Activity (2): Cathepsin A inhibitory activity, IC50 class
T1 construct: Recombinant human cathepsin A (residues 29-480, with a C-terminal 10-His tag); 10-His (C); purchased R&D Systems 1049-SE
T1 sequence (P10619 29-312 limits assumed): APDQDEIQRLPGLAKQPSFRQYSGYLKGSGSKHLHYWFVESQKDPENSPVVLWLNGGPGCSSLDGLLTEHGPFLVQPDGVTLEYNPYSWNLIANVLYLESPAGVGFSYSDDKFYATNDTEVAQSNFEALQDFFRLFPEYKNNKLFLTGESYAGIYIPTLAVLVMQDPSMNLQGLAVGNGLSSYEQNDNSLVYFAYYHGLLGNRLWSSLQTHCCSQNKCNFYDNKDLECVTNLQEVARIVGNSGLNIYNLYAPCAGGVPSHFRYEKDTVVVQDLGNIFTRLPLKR
T1 sequence (P10619 327-480 limits assumed): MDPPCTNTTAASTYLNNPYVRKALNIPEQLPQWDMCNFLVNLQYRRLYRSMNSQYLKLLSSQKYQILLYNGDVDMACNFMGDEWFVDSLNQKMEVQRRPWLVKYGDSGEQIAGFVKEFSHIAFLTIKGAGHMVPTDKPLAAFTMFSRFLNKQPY
Protocol: a) Cathepsin A Inhibitory Activity
Recombinant human cathepsin A (residues 29-480, with a C-terminal 10-His tag; R&D Systems, #1049-SE) was proteolytically activated with recombinant human cathepsin L (R&D Systems, #952-CY). Briefly, cathepsin A was incubated at 10 μg/ml with cathepsin L at 1 μg/ml in activation buffer (25 mM 2-(morpholin-4-yl)-ethanesulfonic acid (MES), pH 6.0, containing 5 mM dithiothreitol (DTT)) for 15 min at 37° C. Cathepsin L activity was then stopped by the addition of the cysteine protease inhibitor E-64 (N-(trans-epoxysuccinyl)-L-leucine-4-guanidinobutylamide; Sigma-Aldrich, #E3132; dissolved in activation buffer/DMSO) to a final concentration of 10 μM.
The activated cathepsin A was diluted in assay buffer (25 mM MES, pH 5.5, containing 5 mM DTT) and mixed with the test compound (dissolved in assay buffer containing (v/v) 3% DMSO) or, in the control experiments, with the vehicle in a multiple assay plate. After incubation for 15 min at room temperature, as substrate then bradykinin carrying an N-terminal®Bodipy FL (4,4-difluoro-5,7-dimethyl-4-bora-3a,4a-diaza-s-indacene-3-propionyl) label (JPT Peptide Technologies GmbH; dissolved in assay buffer) was added to the mixture. The final concentration of cathepsin A was 833 ng/ml and the final concentration of labeled bradykinin 2 μM. After incubation for 15 min at room temperature the reaction was stopped by the addition of stop buffer (130 mM 2-(4-(2-hydroxy-ethyl)-piperazin-1-yl)-ethanesulfonic acid, pH 7.4, containing (v/v) 0.013% Triton X-100, 0.13% Coating Reagent 3 (Caliper Life Sciences), 6.5% DMSO and 20 μM ebelactone B (Sigma, # E0886)).
Uncleaved substrate and product were then separated by a microfluidic capillary electrophoresis on a LabChip® 3000 Drug Discovery System (12-Sipper-Chip; Caliper Life Sciences) and quantified by determination of the respective peak areas. Substrate turnover was calculated by dividing product peak area by the sum of substrate and product peak areas, and the enzyme activity and the inhibitory effect of the test compound thus quantified. From the percentage of inhibition of cathepsin A activity observed with the test compound at several concentrations, the inhibitory concentration IC50, i.e. the concentration which effects 50% inhibition of enzyme activity was, calculated.

| IC50 | SMILES |
| --- | --- |
| 100 to 1000 nM | O=C(O)CC(NC(=O)c1cc(O)n(-c2ccccc2)n1)c1cccnc1 (stereo not shown) [Example 16] |
| 1000 to 30000 nM | O=C(O)CC(NC(=O)c1cc(O)n(-c2ccccc2)n1)C1CC1 (stereo not shown) [Example 17] |
| 100 to 1000 nM | O=C(O)CC(NC(=O)c1cc(O)n(-c2ccccc2)n1)C1CCCCC1 (stereo not shown) [Example 18] |
| 100 to 1000 nM | CC(C)CC(CC(=O)O)NC(=O)c1cc(O)n(-c2ccccc2)n1 (stereo not shown) [Example 19] |
| 100 to 1000 nM | O=C(O)CC(NC(=O)c1cc(O)n(-c2ccccc2)n1)c1ccccc1Cl (stereo not shown) [Example 20] |
| 100 to 1000 nM | Cc1ccccc1C(CC(=O)O)NC(=O)c1cc(O)n(-c2ccccc2)n1 (stereo not shown) [Example 21] |
| 100 to 1000 nM | CCc1ccc(C(CC(=O)O)NC(=O)c2cc(O)n(-c3ccccc3)n2)cc1 (stereo not shown) [Example 22] |
| 1000 to 30000 nM | CC(C)(C)Oc1ccc(C(CC(=O)O)NC(=O)c2cc(O)n(-c3ccccc3)n2)cc1 (stereo not shown) [Example 23] |
| 100 to 1000 nM | CC(C)c1ccc(C(CC(=O)O)NC(=O)c2cc(O)n(-c3ccccc3)n2)cc1 (stereo not shown) [Example 24] |
| 1000 to 30000 nM | COc1ccc(C(CC(=O)O)NC(=O)c2cc(O)n(-c3ccccc3)n2)c(C)c1C (stereo not shown) [Example 25] |
| 1000 to 30000 nM | CCCC(CC(=O)O)NC(=O)c1cc(O)n(-c2cc(C)ccc2C)n1 (stereo not shown) [Example 26] |
| 1000 to 30000 nM | COc1ccc(C(CC(=O)O)NC(=O)c2cc(O)n(-c3cc(C)ccc3C)n2)cc1 (stereo not shown) [Example 27] |
| 1000 to 30000 nM | COc1cccc(C(CC(=O)O)NC(=O)c2cc(O)n(-c3cc(C)ccc3C)n2)c1 (stereo not shown) [Example 28] |
| 1000 to 30000 nM | Cc1ccc(C)c(-n2nc(C(=O)NC(CC(=O)O)c3cccc(Cl)c3)cc2O)c1 (stereo not shown) [Example 29] |
| 1000 to 30000 nM | COc1ccc(C(CC(=O)O)NC(=O)c2cc(O)n(-c3cc(C)ccc3C)n2)cc1OC (stereo not shown) [Example 30] |
| 1000 to 30000 nM | Cc1ccc(C)c(-n2nc(C(=O)NC(CC(=O)O)c3ccc(OC(F)(F)F)cc3)cc2O)c1 (stereo not shown) [Example 31] |
| 1000 to 30000 nM | Cc1ccc(C)c(-n2nc(C(=O)NC(CC(=O)O)C(C)C)cc2O)c1 (stereo not shown) [Example 32] |
| 1000 to 30000 nM | CCCCC(CC(=O)O)NC(=O)c1cc(O)n(-c2cc(C)ccc2C)n1 (stereo not shown) [Example 33] |
| 1000 to 30000 nM | Cc1ccc(C)c(-n2nc(C(=O)NC(CCc3ccccc3)CC(=O)O)cc2O)c1 (stereo not shown) [Example 34] |
| 1000 to 30000 nM | Cc1ccc(C)c(-n2nc(C(=O)NC(CC(=O)O)c3cccnc3)cc2O)c1 (stereo not shown) [Example 35] |
| 1000 to 30000 nM | Cc1ccc(C)c(-n2nc(C(=O)NC(CC(=O)O)C3CC3)cc2O)c1 (stereo not shown) [Example 36] |
| 1000 to 30000 nM | Cc1ccc(C)c(-n2nc(C(=O)NC(CC(=O)O)C3CCCCC3)cc2O)c1 (stereo not shown) [Example 37] |

| IC50 | SMILES |
| --- | --- |
| 1000 to 30000 nM | Cc1ccc(C)c(-n2nc(C(=O)NC(CC(=O)O)CC(C)C)cc2O)c1 (stereo not shown) [Example 38] |
| 1000 to 30000 nM | Cc1ccc(C)c(-n2nc(C(=O)NC(CC(=O)O)c3ccccc3Cl)cc2O)c1 (stereo not shown) [Example 39] |
| 100 to 1000 nM | Cc1ccc(C)c(-n2nc(C(=O)NC(CC(=O)O)c3ccccc3C)cc2O)c1 (stereo not shown) [Example 40] |
| 1000 to 30000 nM | CCc1ccc(C(CC(=O)O)NC(=O)c2cc(O)n(-c3cc(C)ccc3C)n2)cc1 (stereo not shown) [Example 41] |
| 1000 to 30000 nM | Cc1ccc(C)c(-n2nc(C(=O)NC3(CC(=O)O)CCCC3)cc2O)c1 [Example 42] |
| 1000 to 30000 nM | Cc1ccc(C)c(-n2nc(C(=O)NC(CC(=O)O)C3CCOCC3)cc2O)c1 (stereo not shown) [Example 43] |
| 1000 to 30000 nM | Cc1ccc(C)c(-n2nc(C(=O)NC(CC(=O)O)C3CCCC3)cc2O)c1 (stereo not shown) [Example 44] |
| 1000 to 30000 nM | Cc1ccc(C)c(-n2nc(C(=O)NC(CC(=O)O)c3ccc(Cl)cc3)cc2O)c1 (stereo not shown) [Example 45] |
| 1000 to 30000 nM | Cc1ccc(C)c(-n2nc(C(=O)NC(CC(=O)O)c3ccc(CC(C)C)cc3)cc2O)c1 (stereo not shown) [Example 46] |
| 1000 to 30000 nM | Cc1ccc(C)c(-n2nc(C(=O)NC(CC(=O)O)c3ccc(F)c(F)c3)cc2O)c1 (stereo not shown) [Example 47] |
| 1000 to 30000 nM | Cc1ccc(C)c(-n2nc(C(=O)NC(CC(=O)O)c3ccc(Cl)c(Cl)c3)cc2O)c1 (stereo not shown) [Example 48] |
| 1000 to 30000 nM | Cc1ccc(C)c(-n2nc(C(=O)NC(CC(=O)O)c3cccc(F)c3)cc2O)c1 (stereo not shown) [Example 49] |
| 1000 to 30000 nM | Cc1ccc(C(CC(=O)O)NC(=O)c2cc(O)n(-c3cc(C)ccc3C)n2)cc1 (stereo not shown) [Example 50] |
| 1000 to 30000 nM | Cc1cccc(C(CC(=O)O)NC(=O)c2cc(O)n(-c3cc(C)ccc3C)n2)c1 (stereo not shown) [Example 51] |
| 1000 to 30000 nM | Cc1ccc(C)c(-n2nc(C(=O)NC(CC(=O)O)c3ccc(C#N)cc3)cc2O)c1 (stereo not shown) [Example 52] |
| 1000 to 30000 nM | Cc1ccc(C)c(-n2nc(C(=O)NC(CC(=O)O)c3cccc(C(F)(F)F)c3)cc2O)c1 (stereo not shown) [Example 53] |
| 1000 to 30000 nM | COc1ccc(C(CC(=O)O)NC(=O)c2cc(O)n(-c3cc(C)ccc3C)n2)cc1F (stereo not shown) [Example 54] |
| 100 to 1000 nM | Cc1ccc(C)c(-n2nc(C(=O)NC(CC(=O)O)c3ccc(-c4ccccc4)cc3)cc2O)c1 (stereo not shown) [Example 55] |
| 1000 to 30000 nM | Cc1ccc(C)c(-n2nc(C(=O)NC(CC(=O)O)c3cc(F)cc(F)c3)cc2O)c1 (stereo not shown) [Example 56] |
| 1000 to 30000 nM | Cc1ccc(C)c(-n2nc(C(=O)NC(CC(=O)O)c3ccc(C(F)(F)F)cc3)cc2O)c1 (stereo not shown) [Example 57] |
| 100 to 1000 nM | O=C(O)CC(NC(=O)c1cc(O)n(-c2ccccc2)n1)c1ccc(Cl)cc1 (stereo not shown) [Example 58] |
| 1000 to 30000 nM | O=C(O)CC(NC(=O)c1cc(O)n(-c2ccccc2)n1)c1cc(C(F)(F)F)cc(C(F)(F)F)c1 (stereo not shown) [Example 59] |

| IC50 | SMILES |
| --- | --- |
| 1000 to 30000 nM | O=C(O)CC(NC(=O)c1cc(O)n(-c2ccccc2)n1)c1ccc(F)c(F)c1 (stereo not shown) [Example 60] |
| 1000 to 30000 nM | O=C(O)CC(NC(=O)c1cc(O)n(-c2ccccc2)n1)c1ccc(F)cc1 (stereo not shown) [Example 61] |
| 100 to 1000 nM | O=C(O)CC(NC(=O)c1cc(O)n(-c2ccccc2)n1)c1ccc(Cl)c(Cl)c1 (stereo not shown) [Example 62] |
| 1000 to 30000 nM | O=C(O)CC(NC(=O)c1cc(O)n(-c2ccccc2)n1)c1cccc(F)c1 (stereo not shown) [Example 63] |
| 100 to 1000 nM | Cc1ccc(C(CC(=O)O)NC(=O)c2cc(O)n(-c3ccccc3)n2)cc1 (stereo not shown) [Example 64] |
| 100 to 1000 nM | Cc1cccc(C(CC(=O)O)NC(=O)c2cc(O)n(-c3ccccc3)n2)c1 (stereo not shown) [Example 65] |
| 1000 to 30000 nM | CC(C)(C)c1ccc(C(CC(=O)O)NC(=O)c2cc(O)n(-c3ccccc3)n2)cc1 (stereo not shown) [Example 66] |
| 100 to 1000 nM | O=C(O)CC(NC(=O)c1cc(O)n(-c2ccccc2)n1)c1cccc(C(F)(F)F)c1 (stereo not shown) [Example 67] |
| 1000 to 30000 nM | COc1ccc(C(CC(=O)O)NC(=O)c2cc(O)n(-c3ccccc3)n2)cc1F (stereo not shown) [Example 68] |
| 100 to 1000 nM | O=C(O)CC(NC(=O)c1cc(O)n(-c2ccccc2)n1)c1ccc(-c2ccccc2)cc1 (stereo not shown) [Example 69] |
| 1000 to 30000 nM | O=C(O)CC(NC(=O)c1cc(O)n(-c2ccccc2)n1)c1cc(F)cc(F)c1 (stereo not shown) [Example 70] |
| 1000 to 30000 nM | O=C(O)CC(NC(=O)c1cc(O)n(-c2ccccc2)n1)c1ccc(C(F)(F)F)cc1 (stereo not shown) [Example 71] |
| 1000 to 30000 nM | O=C(O)CC(NC(=O)c1cc(O)n(-c2ccc(F)c(Cl)c2)n1)c1ccc(F)cc1 (stereo not shown) [Example 72] |
| 1000 to 30000 nM | O=C(O)CC(NC(=O)c1cc(O)n(-c2ccc(Cl)cc2)n1)c1ccc(F)cc1 (stereo not shown) [Example 73, 3-{[1-(4-Chloro-phenyl)-5-hydroxy-1H-pyrazole-3-carbonyl]-amino}-3-(4-fluoro-phenyl)-propionic acid] |
| < 100 nM | Cc1ccccc1[C@H](CC(=O)O)NC(=O)c1cc(O)n(-c2cccc(F)c2)n1 [Example 74] |
| 100 to 1000 nM | Cc1ccccc1[C@H](CC(=O)O)NC(=O)c1cc(O)n(-c2cccc(Cl)c2)n1 [Example 75] |
| < 100 nM | Cc1ccccc1[C@H](CC(=O)O)NC(=O)c1cc(O)n(-c2ccc(F)cc2)n1 [Example 76] |
| < 100 nM | Cc1ccccc1[C@H](CC(=O)O)NC(=O)c1cc(O)n(-c2ccccc2Cl)n1 [Example 77] |
| 1000 to 30000 nM | Cc1cc(C)cc(-n2nc(C(=O)NC(CC(=O)O)c3ccccc3C)cc2O)c1 (stereo not shown) [Example 78] |
| 100 to 1000 nM | Cc1ccccc1C(CC(=O)O)NC(=O)c1cc(O)n(-c2ccc(Cl)cc2)n1 (stereo not shown) [Example 79] |
